Patent US8729026B2, “Method for inhibiting autophagy of motor neurons” (China Medical University, priority 2012, dated 2014)

Experiments:
[1] = Phase I metabolism assay, rat hepatic microsomes, LC-MS/MS metabolite identification; format: in vitro ADME; details: butylidenephthalide 2 mM, rat hepatic microsomes 0.5 mg/mL, NADPH, 37° C., 60 minutes
Description: (§1) It has been known that the medicine metabolic pathway within an organism's liver can be primarily divided into phase I and phase II metabolism. Phase I metabolism occurs mainly by the redox reaction or hydrolysis reaction of medicine, and phase II metabolism occurs mainly by […]. This example simulated the phase I and II metabolism of butylidenephthalide that occur within an organism's liver by respectively mixing butylidenephthalide with hepatic microsomes or cryopreserved hepatocytes in vitro, and the products in the reaction solution were analyzed by liquid chromatograph-tandem mass spectrometer (LC-MS/MS) to identify the metabolites and the metabolic profile. The experimental steps were as follows:
(§2) Butylidenephthalide (2 mM) was mixed respectively with K3PO4 buffer solution (100 mM, pH7.4) containing human, rats or dogs hepatic micrsomes (0.5 mg/mL). The mixture was maintained at 37° C. for 10 minutes, and then pre-warmed cofactors (NADPH (2 mM) and MgCl2 (3 mM)) were added thereto and the mixture was incubated at 37° C. for 60 minutes. Thereafter, 3-fold volume of acetonitrile containing 0.1% formic acid was added to the mixture to terminate the reaction. The mixture was centrifuged at 13000 rpm for 5 minutes, and the supernatant was then collected and analyzed by LC-MS/MS to identify the metabolites. […]

[2] = Phase I metabolism assay, dog hepatic microsomes, LC-MS/MS metabolite identification; format: in vitro ADME; details: butylidenephthalide 2 mM, dog hepatic microsomes 0.5 mg/mL, NADPH, 37° C., 60 minutes
Description: as §1, §2

[3] = Phase I metabolism assay, human hepatic microsomes, LC-MS/MS metabolite identification; format: in vitro ADME; details: butylidenephthalide 2 mM, human hepatic microsomes 0.5 mg/mL, NADPH, 37° C., 60 minutes
Description: as §1, §2

[4] = Phase II metabolism assay, rat cryopreserved hepatocytes, LC-MS/MS metabolite identification; format: in vitro ADME; details: butylidenephthalide 50 μM, 37° C., 6 hours
Description: as §1
(§3) William's E medium containing 5×10^5 thawed human, rat or dog hepatocytes were respectively added into a 12-well culture dish, and the cells were cultured for 6 hours. Then, 0.5 mL of butylidenephthalide (50 μM) was added into the culture dish. After the cells were incubated at 37° C., 95% relative humidity and 5% CO2 for 6 hours, 2 mL of acetonitrile (100%) was added to terminate the reaction. The sample was collected, mixed adequately, and centrifuged at 45000 g, 4° C. for 10 minutes. The supernatant was then collected, dried, and analyzed by LC-MS/MS to identify the metabolites. […]

[5] = Phase II metabolism assay, dog cryopreserved hepatocytes, LC-MS/MS metabolite identification; format: in vitro ADME; details: butylidenephthalide 50 μM, 37° C., 6 hours
Description: as §1, §3

[6] = Phase II metabolism assay, human cryopreserved hepatocytes, LC-MS/MS metabolite identification; format: in vitro ADME; details: butylidenephthalide 50 μM, 37° C., 6 hours
Description: as §1, §3

[7] = test system: SOD1-G93A transgenic mice; assay: Survival of SOD1-G93A transgenic mice (amyotrophic lateral sclerosis model); format: in vivo, mouse; details: 60-day-old SOD1-G93A transgenic mice, oral, 500 mg/kg-body weight once daily; for Survival days: n = 8, 500 mg/kg
Description: It has been known that about 20% of amyotrophic lateral sclerosis patients were associated with mutations in the gene that encodes Cu/Zn superoxide dismutase enzyme (SOD1), and G93A was the major mutation site. […] A SOD1-G93A transgenic mouse will show the symptoms of amyotrophic lateral sclerosis within about 90±5 days postnatal and will die within about 125±5 days postnatal.
This example used the above SOD1-G93A transgenic mice as the object of study to perform in vivo analysis. SOD1-G93A transgenic mice (60-day-old) were treated with butylidenephthalide (purchased from ECHO Chemical) by oral administration, with a dosage of 500 mg/kg-body weight once daily, wherein the unit “mg/kg-body weight” means the dosage required per kg-body weight.

[8] = test system: SOD1-G93A transgenic mice; assay: BBB Locomotor Rating Scale of hind limbs of SOD1-G93A transgenic mice; format: in vivo, mouse; details: oral, 500 mg/kg-body weight once daily from 60 days of age; normal mice 21 points
Method: SOD1-G93A transgenic mice (60-day-old) were treated with butylidenephthalide by oral administration, with a dosage of 500 mg/kg-body weight once daily. After the mice were treated for 30 days, the hind limbs of the mice were examined by BBB scale (Basso, Beattie, and Bresnahan (BBB) Locomotor Rating Scale). The BBB scale of the hind limbs of normal mice was 21 points, while the BBB scale of disease-progressed SOD1-G93A transgenic mice decreased from 21 to 0 points, wherein the lower scale represents a more severe action disorder in the mice. BBB scale is used to record the drug efficiency.

[9] = test system: spinal motor neurons; assay: Histochemical staining (hematoxylin and eosin): count of spinal motor neurons of SOD1-G93A transgenic mice; format: in vivo, mouse; details: spinal cord, mice sacrificed in extremis, oral 500 mg/kg-body weight once daily
Method: SOD1-G93A transgenic mice (60-day-old) were treated with butylidenephthalide by oral administration, with a dosage of 500 mg/kg-body weight once daily. The SOD1-G93A transgenic mice in the experimental group were sacrificed in extremis, and the spinal cord was collected to perform hematoxylin and eosin stain. The number of motor neurons in the spinal cord was observed and counted by using a microscope, and the data was compared with that of the untreated control group.

[10] = test system: LC3-II; assay: Western blotting of autophagy biomarker LC3-II in spinal cord of SOD1-G93A transgenic mice; format: in vivo, mouse; details: compared with untreated control; oral 500 mg/kg-body weight once daily, sacrificed in extremis; β-actin internal control
Method: SOD1-G93A transgenic mice (60-day-old) were treated with butylidenephthalide by oral administration, with a dosage of 500 mg/kg-body weight once daily. It has been indicated by research that SOD1-G93A transgenic mice lost its spinal motor neurons because of the significant increase of autophagy during the last phase of amyotrophic lateral sclerosis (which can be seen in In vivo optical imaging of motor neuron autophagy in a mouse model of amyotrophic lateral sclerosis. Autophagy 7:9, 1-8; September 2011, which is entirely incorporated hereinto by reference). Therefore, in this example, the SOD1-G93A transgenic mice in experimental group were sacrificed in extremis to collect their spinal cord, and the proteins were extracted from the spinal cord to perform Western blotting and to analyze the protein biomarker of autophagy, LC3-II, which was used to determine whether autophagy occurred in the lumbar spinal motor neurons of the mice, wherein β-actin was used as an internal control.

[11] = test system: NSCs (neural stem cells); assay: Cellular experiment: H2O2-stimulated autophagy of NSCs, LC3-II by Western blotting; format: cell-based, mouse; details: 10 μg/mL butylidenephthalide for 12 hours, then H2O2 (2500 μM/mL) for 12 hours
Method: Cellular experiment was performed by using NSCs (neural stem cells) which can differentiate into mouse motor neurons to imitate mouse motor neurons.
NSCs were incubated in a culture dish (10 cm in diameter). The cells were washed with PBS when grown to a density of 60% confluence, and treated with different concentrations of butylidenephthalide for 12 hours. The cells were then treated with H2O2 (2500 μM/mL) for 12 hours to stimulate the autophagy of cells. Then, the cells were collected and the proteins were extracted, and the protein expression level of LC3-II in NSC was analyzed by SDS-PAGE and Western blotting.

Compound: CCCC=C1OC(=O)c2ccccc21 [butylidenephthalide]
- metabolites produced (phase I metabolism) [1]: compounds (2) to (9)
- metabolites produced (phase I metabolism) [2]: compounds (2) to (9)
- metabolites produced (phase I metabolism) [3]: compounds (2) to (9)
- metabolites produced (phase II metabolism) [4]: compounds (11) to (14)
- metabolites produced (phase II metabolism) [5]: compounds (11) to (14)
- metabolites produced (phase II metabolism) [6]: compounds (11) to (14)
- life lengthened as compared to untreated control group [7]: about 22±2 days
- Survival days [7]: about 149±4.39 days
- Survival days ([7]; listed as n-BP): 149 ± 4.39 days
- BBB scale of the hind limbs, after 135 days (decreased rapidly) [8]: 16 to 0 points
- BBB scale of the hind limbs, from 125 to 135 days (decreased slowly) [8]: 21 to 16 points
- The number of motor neurons ([9]; control group 3 ± 3.1): 24
- The number of motor neurons ([9]; control group 3 ± 3.1, listed as n-BP): 24 ± 4.2
- protein expression level of LC3-II and pLC3-II in cervical, thoracic and lumbar spinal cord [10]: significantly decreased
- protein expression level of LC3-II in NSC [11]: decrease the protein expression level of LC3-II
